Where “and” joins values, the source holds several entries; their conditions need not be identical. Equal entries are not always repeated.

One assay relates to HMC3-MHCII^Luc cells. The experiment in a line: IFNγ-mediated microglial activation, MHCII-driven luciferase activity. It is filed as cell-based, human. The settings on record: IFNγ 10 ng/ml; AATs 1, 10 or 25 μM day 0 to day 4. As for the experimental part: • A) Human microglial cells HMC3-MHCII^Luc cells were plated at day 0, activated with IFNγ at day1 until day 2 and measurement of the luciferase activity and cell viability were done at day 4. • B) Activation was measured by the activity of MHCII-driven luciferase and normalized to cell viability. Luciferase activity for all conditions is represented as fold of the untreated control. A potential effect of the highest concentration of the buffer used for drug presentation (IFNγ, AATs) was precluded. All conditions were performed in triplicates, error bars represent standard deviation (FIGS. 1A and 1B).
• A) Human microglial HMC3-MHCII^Luc and HMC3MHCII^Luc; Ubi^AAT cells were plated at day 0, presented IFNγ at day 1 until day 2 and measurement of the luciferase activity and cell viability were done at day 4. • B) AATs were applied from day 0 to day 4 on HMC3-MHCII^Luc cells. Activation was measured by the activity of MHCII-driven luciferase and normalized to cell viability. […]
• A) Human microglial HMC3-MHCII^Luc cells were plated at day 0, presented IFNγ at day 1 until day 2 and measurement of the luciferase activity and cell viability were done at day 4. • B) AATs were applied from day 0 to day 4 on HMC3-MHCII^Luc cells. Activation was measured by the activity of MHCII-driven luciferase and represented as percentage of IFNγ control for all conditions. […]

In assay [1] the test system is C3-PMP22 transgenic mice (CMT1A). Kind of assay: Sciatic nerve histology, CMT1A mouse study (50 mg/kg twice daily). Type of assay: in vivo. The settings on record: 8 weeks old. As for the experimental part:
Animals were split in 3 groups (wild-type control (subcutaneous 0.9% NaCl), CMT1A-vehicle (subcutaneous 0.9% NaCl), CMT1A-human alpha-1 antitrypsin (subcutaneous, twice daily, 50 mg/kg per injection)) of 3 mice each (3 weeks old males of 18±2.5 g at the beginning of study) and all went through the following protocol after 7 days of acclimation on site.
On the first and last day of treatment, the neuromuscular performance of animals was tested with a rotarod test, grip test and sciatic nerve electrophysiology test. After the last treatment at 8 weeks, these tests were repeated, and animals were sacrificed and the left sciatic nerve was sampled for histological evaluation of the number and size of […].

In the next assay the test system is CIDP mice. Kind of assay: Rotarod test, CIDP mouse model. Type of assay: in vivo. The settings on record: for Rotarod latency (Mean ± SEM): CIDP mice; for Rotarod latency, group Mean: group mean of 4 animals; for Rotarod latency, Mean/animal: per animal; for Rotarod latency, Mean/animal / Rotarod latency, set 1 / Rotarod latency, set 2 / Rotarod latency, set 3: listed as hAAT; for Rotarod latency, set 1 / Rotarod latency, set 2 / Rotarod latency, set 3: raw data per animal. As for the experimental part: C57BL/6 mice were received at 8 weeks of age and housed under controlled conditions for the duration of the study. Three groups of 4 animals each were assigned to the following subcutaneous treatments twice daily at 7:00 AM and 7:00 PM for 2 weeks, from 20 to 35 days after the start of disease induction: • Wild type (WT) mice receiving the vehicle, 0.9% NaCl (positive control) • CIDP mice receiving the vehicle, 0.9% NaCl (negative control) • CIDP mice receiving human AAT (AAT), 50 mg/kg per injection
Disease induction consisted in subcutaneous injection of mouse sciatic nerve homogenate in phosphate buffer saline (PBS)+Freund's adjuvant mixture at 10 mL/kg. For each treatment, 3 different body sites injections were performed. Control mice also received three subcutaneous injections of PBS+Freund's adjuvant at the same 3 different body sites.
On the first (Day 20) and last (Day 35) day of treatment, the neuromuscular and performance of animals was tested with a rotarod test, grip test and a sensory test using the Von Frey filament test, as well as sciatic nerve electrophysiology test. After the last treatment at Day 35, these tests were repeated, animals were sacrificed and the left sciatic nerve was sampled for histological evaluation of the number and size of […].
For orientation: In the rotarod test animals must keep their balance on a rotating rod.

Where [2] appears, read: CMT1A + AAT, 50 mg/kg twice daily sc.
Where [3] appears, read: CMT1A mice, AAT 50 mg/kg sc twice daily.

With alpha1-antitrypsin (AAT) protein, the “IFNγ-mediated microglial activation (MHCII-driven luciferase activity)” value with HMC3-MHCII^Luc cells is listed as “decreases”. Further, in assay [1] (setting [2]), the “axonal diameter compared to the vehicle treated group” value was “significant increase”, the “g-ratio compared to the vehicle treated group” value is given as “decrease” and the “total number of axons per surface compared to the vehicle group” value is “Slight increase”. In assay [1] (setting [3]), the “Sciatic nerve histology, Axonal diameter (Mean ± SEM)” value is 2.53 ± 0.15 ^††† μm; the “Sciatic nerve histology, Axons/100 μm^2 (Mean ± SEM)” value turned out to be 39.33 ± 4.81; the “Sciatic nerve histology, g-ratio (Mean ± SEM)” value is listed as 0.63 ± 0.009 ^†††. Besides, the “rotarod latency compared to the vehicle treated group” value in the assay on CIDP mice (CIDP + AAT 50 mg/kg sc twice daily, Day 35) is reported as “increase”. The “Rotarod latency (Mean ± SEM)” value with CIDP mice (Day 20 (baseline, first treatment day)) is 25.96 ± 6.16 s. Further, the “Rotarod latency (Mean ± SEM)” value with CIDP mice (Day 35, AAT 50 mg/kg sc twice daily) was found to be 34.96 ± 9.47 s. In addition, in the assay with CIDP mice (Baseline (Day 20)), the “Rotarod latency, group Mean” value is 25.96 s; the “Rotarod latency, Mean/animal” value is 17.68 s and 29.19 s and 31.82 s and 25.13 s; the “Rotarod latency, set 1” value was 19.1 s and 28.0 s and 28.7 s and 24.1 s; the “Rotarod latency, set 2” value is 17.7 s and 26.7 s and 33.0 s and 24.0 s. The “Rotarod latency, set 3” value in the assay on CIDP mice (Baseline (Day 20)) was 16.2 s and 32.9 s and 33.8 s and 27.3 s. Also, in the assay on CIDP mice (Day 35), the “Rotarod latency, group Mean” value amounted to 34.96 s; the “Rotarod latency, Mean/animal” value was 38.90 s and 36.28 s and 43.23 s and 21.41 s; the “Rotarod latency, set 1” value is 32.02 s and 44.79 s and 52.44 s and 37.74 s; the “Rotarod latency, set 2” value is 36.34 s and 31.48 s and 34.61 s and 19.21 s. In addition, the “Rotarod latency, set 3” value with CIDP mice (Day 35) is 48.35 s and 32.56 s and 42.63 s and 7.29 s.

The values above are taken from patent publication US20260028390A1, “ALPHA1-ANTITRYPSIN FOR USE IN THE TREATMENT OF DISEASES OR DISORDERS OF THE NERVOUS SYSTEM SUCH AS CHRONIC INFLAMMATORY DEMYELINATING POLYNEUROPATHY” (Ageronix SA, priority 2022, published 2026).
